Experimental data: US12384769B2, “Heteroaryl-substituted aminoalkyl azole compounds as pesticides” (Elanco Animal Health GmbH, priority 2019, dated 2025)

How the values were obtained:
Format in all cases: in vivo
Ctenocephalides felis = Ctenocephalides felis oral test (CTECFE); conditions: 48 h, 100 ppm in cattle blood, after 2 days
Outline: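 About 20 adult unfed fleas fed through parafilm on cattle blood held at 37° C and dosed with compound from a DMSO concentrate; flea chamber at room temperature. Percent mortality scored after 2 days.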

Myzus persicae = Myzus persicae oral test; conditions: 120 h, after 5 days
Protocol: Solvent: 100 parts by weight acetone
Afterwards the plates are sealed with parafilm through which a mixed population of the green peach aphid (Myzus persicae) can suck on the compound preparation.
After 5 days mortality in % is determined. 100% means all aphids have been killed and 0% means none of the aphids have been killed.

Diabrotica balteata = Diabrotica balteata spray test; conditions: 168 h, 500 g/ha (=160 μg/well), wheat seeds, after 7 days, read-out: activity (efficacy, seedlings grown)
Outline: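 Efficacy was read 7 days after infesting each unit with 10–20 banded cucumber beetle larvae, as % of seedlings growing like untreated, uninfested controls. Before infestation, wheat seeds germinated 1 day on agar (5 per well) were sprayed with the active ingredient. The active was formulated in acetone/DMF and diluted in water containing emulsifier.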

Boophilus microplus = Boophilus microplus injection test (BOOPMI Injection); conditions: Rhipicephalus microplus, 168 h, injection into adult engorged female ticks, egg deposition after 7 days, read-out: activity (efficacy, infertile eggs)
Outline: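 Adult engorged female ticks (5 per group) injected into the abdomen with 1 μL compound in DMSO, then held in a climate chamber. Fertile egg deposition scored after 7 days, with unclear eggs kept until hatching (~42 days). Efficacy 100% = all eggs infertile, 0% = all fertile.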

C[C@H](Nc1nc2cc(C(F)(F)F)c(Cl)cc2o1)c1ncnn1-c1ncccn1 [Example I-001, 6-chloro-N-{(1S)-1-[1-(pyrimidin-2-yl)-1H-1,2,4-triazol-5-yl]ethyl}-5-(trifluoromethyl)-1,3-benzoxazol-2-amine]
100%: mortality at 100 ppm (Ctenocephalides felis) | mortality at 4 ppm (Myzus persicae) | pest or weed control at 160 µg/disc, 500 g/ha (Diabrotica balteata) | pest or weed control at 0.004 mg (Boophilus microplus; 4 μg/animal) | pest or weed control at 0.02 mg (Boophilus microplus; 20 μg/animal)
